Here are results for four compounds from patent US20240238392A1 (priority 2023, published 2024).

One assay deals with neurokinin-1 receptor (Rattus norvegicus, UniProt P14600). To be noted: in vivo; cited from earlier work.
For assay [1], the system named is acute heart failure caused by viral infection. The note with it: human, in vivo.
For assay [2], the system named is chronic heart failure caused by systolic dysfunction. The note with it: human, in vivo.
The test system of assay [3] is chronic heart failure caused by diastolic dysfunction. The note with it: human, in vivo.
In assay [4] the test system is isolated cardiac fibroblasts. To be noted: cited from earlier work.

Where no end group is shown, it is not given here.

Chain of neurokinin-1 receptor (P14600 whole entry): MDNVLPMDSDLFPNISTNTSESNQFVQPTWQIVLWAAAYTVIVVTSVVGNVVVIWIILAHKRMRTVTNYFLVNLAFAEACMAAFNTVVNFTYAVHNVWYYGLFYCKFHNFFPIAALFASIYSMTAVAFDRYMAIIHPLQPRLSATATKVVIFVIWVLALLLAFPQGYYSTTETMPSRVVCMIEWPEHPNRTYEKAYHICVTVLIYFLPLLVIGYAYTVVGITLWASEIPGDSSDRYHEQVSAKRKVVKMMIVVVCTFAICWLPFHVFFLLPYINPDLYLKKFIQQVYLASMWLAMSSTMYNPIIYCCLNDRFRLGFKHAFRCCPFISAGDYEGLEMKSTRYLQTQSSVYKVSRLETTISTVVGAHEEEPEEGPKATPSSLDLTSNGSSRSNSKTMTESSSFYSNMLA

For the compound `CC(=O)N[C@@H](Cc1c[nH]c2ccccc12)C(=O)OCc1cc(C(F)(F)F)cc(C(F)(F)F)c1` [L732138], on neurokinin-1 receptor, the “cardiac fibrosis in SHR” value is recorded as “prevented”, the “increase of fetal gene expression by cardiomyocytes in SHR” value is “prevented” and the “upregulation of endothelin-1 in SHR” value was “prevented”.

Take `[N-]=[N+]=O` [nitrous oxide]: in assay [1], the glutamate blood level entry is given as “lower than before”; the “patient-reported respiratory rate and peripheral edema” value is “significant improvement in respiratory rate and peripheral edema”; the “substance P blood level” value is “lower than before”.

Regarding botulinum toxin, in assay [2], the “Substance P blood levels” value was “lower than before”; the “patient-reported breath and fatigue” value was “significant improvement in breath and fatigue”. In addition, in assay [3], the glutamate blood level result was “lower than before”; the “patient-reported breath and pulmonary edema” value is “significant improvement in breath and pulmonary edema”; the “substance P blood level” value was “lower than before”.

For “substance P: sensory nerve neuropeptide (tachykinin) acting on the neurokinin-1 receptor (RPKPQQFFGLM; ends and bridges not checked; UniProt P20366 58-68, looked up)”, in assay [4], the fibroblast function result is given as “no changes in fibroblast function were observed”; the “genes related to cell-cell adhesion, cell-matrix adhesion, and extracellular matrix regulation” value is listed as “transiently up-regulated”.
